According to paper PMC6166404 (Journal of medicinal chemistry, 2018):

Tests used:
[1] = tested on: Mtb strain SRMV2.6 (MtbIMPDH2/Y487C); assay type: cell-based, Mycobacterium tuberculosis
[2] = molecular target: MtbIMPDH2ΔCBS (Mycobacterium tuberculosis, UniProt P9WKI7, R252G); assay type: biochemical; conditions: for Ki: read-out: Ki,app MtbIMPDH2
[3] = molecular target: MtbIMPDH2/Y487C (Mycobacterium tuberculosis, UniProt P9WKI7, Y487C); assay type: biochemical

## COc1ccc(OC(C)C(=O)Nc2ccc3oc(-c4ccncc4)nc3c2)cc1 (stereo not drawn) [Compound 1, reference compound]
[1]
  MIC SRMV2.6: >100 µM
  susceptibility of strain SRMV2.6: resistant

## COc1ccc(-c2nc3cc(NC(=O)[C@H](C)Oc4cccc(Cl)c4Cl)ccc3o2)cn1 [Compound 8c, (S)-2-(2,3-dichlorophenoxy)-N-(2-(6-methoxypyridin-3-yl)benzo[d]oxazol-5-yl)propanamide]
[2]
  fold increase in MtbIMPDH2ΔCBS inhibitory activity compared to 2: 5 fold

## COc1ccc(-c2nc3cc(NC(=O)[C@H](C)Oc4cccc(Cl)c4Cl)ccc3o2)cc1 [Compound 8d, (S)-2-(2,3-Dichlorophenoxy)-N-(2-(4-methoxyphenyl)benzo[d]oxazol-5-yl)propanamide]
[2]
  fold increase in MtbIMPDH2ΔCBS inhibitory activity compared to 2: 7 fold

## C[C@H](Oc1cccc(Cl)c1Cl)C(=O)Nc1ccc2oc(-c3ccc(OC(F)(F)F)cc3)nc2c1 [Compound 8e, (S)-2-(2,3-Dichlorophenoxy)-N-(2-(4-(trifluoromethoxy)phenyl)benzo[d]oxazol-5-yl)propanamide]
[2]
  fold increase in MtbIMPDH2ΔCBS inhibitory activity compared to 2: 7 fold

## C[C@H](Oc1cccc(Cl)c1Cl)C(=O)Nc1ccc2oc(-c3ccc(C#N)cc3)nc2c1 [Compound 8f, (S)-N-(2-(4-Cyanophenyl)benzo[d]oxazol-5-yl)-2-(2,3-dichlorophenoxy)propanamide]
[2]
  fold increase in MtbIMPDH2ΔCBS inhibitory activity compared to 2: 7 fold

## C[C@H](Oc1cccc(Cl)c1Cl)C(=O)Nc1ccc2oc(-c3ccc(O)cc3)nc2c1 [Compound 8i, (S)-2-(2,3-Dichlorophenoxy)-N-(2-(4-hydroxyphenyl)benzo[d]oxazol-5-yl)propanamide]
[2]
  fold increase in MtbIMPDH2ΔCBS inhibitory activity compared to 2: 2 fold

## COc1ccc(Cc2nc3cc(NC(=O)[C@H](C)Oc4cccc(Cl)c4Cl)ccc3o2)cc1 [Compound 15, (S)-2-(2,3-dichlorophenoxy)-N-(2-(4-methoxybenzyl)benzo[d]oxazol-5-yl)prop-anamide]
[2]
  factor of reduced activity compared to 8d: 6

## C[C@H](Nc1cccc(F)c1F)C(=O)Nc1ccc2oc(-c3ccc(C#N)cc3)nc2c1 [Compound 17b, (S)-N-(2-(4-Cyanophenyl)benzo[d]oxazol-5-yl)-2-((2,3-difluorophenyl)amino)propanamide]
[1]
  MIC SRMV2.6: >100 µM
  susceptibility of strain SRMV2.6: resistant
[3]
  Ratio Ki,app (Y487C) /Ki,app (WT): 60

## CCOC(=O)COc1ccc(-c2nc3cc(NC(=O)[C@H](C)Oc4cccc(Cl)c4Cl)ccc3o2)cc1 [Compound 18a, Ethyl (S)-2-(4-(5-(2-(2,3-dichlorophenoxy)propanamido)benzo[d]oxazol-2-yl)phenoxy)acetate]
[1]
  susceptibility of strain SRMV2.6: remained sensitive

## CCOC(=O)COc1cccc(-c2nc3cc(NC(=O)[C@H](C)Oc4cccc(Cl)c4Cl)ccc3o2)c1 [Compound 18b, Ethyl(S)-2-(3-(5-(2-(2,3-dichlorophenoxy)propanamido)benzo[d]oxazol-2-yl)phenoxy)acetate]
[2]
  fold loss in activity on translocating the alkoxy from para to meta position: 4 fold

## C[C@H](Oc1cccc(Cl)c1Cl)C(=O)Nc1ccc2oc(-c3cccc(OCC(=O)O)c3)nc2c1 [Compound 19b, (S)-2-(3-(5-(2-(2,3-Dichlorophenoxy)propanamido)benzo[d]oxazol-2-yl)phenoxy)acetic acid]
[2]
  fold loss in activity on translocating the alkoxy from para to meta position: 4 fold

## C[C@H](Oc1cccc(Cl)c1Cl)C(=O)Nc1ccc2oc(-c3ccc(C(=O)O)cc3)nc2c1 [Compound 22, (S)-4-(5-(2-(2,3-Dichlorophenoxy)propanamido)benzo[d]oxazol-2-yl)benzoic acid]
[1]
  susceptibility of strain SRMV2.6: remained sensitive

## C[C@H](Oc1cccc(Cl)c1Cl)C(=O)Nc1ccc2oc(-c3ccc(C(=O)NN)cc3)nc2c1 [Compound 23, (S)-2-(2,3-Dichlorophenoxy)-N-(2-(4-(hydrazinecarbonyl)phenyl)benzo[d]oxazol-5-yl)propanamide]
[2]
  fold increase in activity on replacing the carboxylate: 2 to 7 fold

## C[C@H](Oc1cccc(Cl)c1Cl)C(=O)Nc1ccc2oc(-c3ccc(-c4n[nH]c(=O)o4)cc3)nc2c1 [Compound 24, (S)-2-(2,3-Dichlorophenoxy)-N-(2-(4-(5-oxo-4,5-dihydro-1,3,4-oxadiazol-2-yl)phenyl)benzo[d]oxazol-5-yl)propanamide]
[2]
  fold increase in activity on replacing the carboxylate: 2 to 7 fold

## C[C@H](Oc1cccc(Cl)c1Cl)C(=O)Nc1ccc2oc(-c3ccc(/C(N)=N\O)cc3)nc2c1 [Compound 25, (S,Z)-2-(2,3-Dichlorophenoxy)-N-(2-(4-(N’-hydroxycarbamimidoyl)phenyl)benzo[d]oxazol-5-yl)propanamide]
[2]
  fold increase in activity on replacing the carboxylate: 2 to 7 fold

## C[C@H](Oc1cccc(Cl)c1Cl)C(=O)Nc1ccc2oc(-c3ccc(-c4noc(=O)[nH]4)cc3)nc2c1 [Compound 26, (S)-2-(2,3-Dichlorophenoxy)-N-(2-(4-(5-oxo-4,5-dihydro-1,2,4-oxadiazol-3-yl)phenyl)benzo-[d]oxazol-5-yl)propanamide]
[2]
  fold increase in activity on replacing the carboxylate: 2 to 7 fold

## C[C@H](Oc1cccc(Cl)c1Cl)C(=O)Nc1ccc2oc(-c3ccc(C(N)=O)cc3)nc2c1 [Compound 28, (S)-4-(5-(2-(2,3-Dichlorophenoxy)propanamido)benzo[d]oxazol-2-yl)benzamide]
[2]
  fold increase in activity on replacing the carboxylate: 2 to 7 fold

## (S)-2-(2,3-Dichlorophenoxy)-N-(2-(2-methoxypyridin-4-yl)benzo[d]oxazol-5-yl)propanamide [Compound 8b]
[2]
  fold increase in MtbIMPDH2ΔCBS inhibitory activity compared to 2: 5 fold
  Ki: 12 ± 0.1 nM

## (S)-2-(2,3-Dichlorophenoxy)-N-(2-(2-oxo-1,2-dihydropyridin-4-yl)benzo[d]oxazol-5-yl)propanamide [Compound 30]
[2]
  fold reduction of MtbIMPDH2ΔCBS inhibitory activity compared to 2: 3 fold
  Ki: 220 ± 6 nM
